13 compounds from US9556139B2, “6-substituted phenoxychroman carboxylic acid derivatives” (Array BioPharma Inc., priority 2008, dated 2017) can be followed below.

In the first assay the target is human DP2 (Homo sapiens (Human), UniProt Q9Y5Y4). The assay is described as follows: DP-2 Binding Inhibition Assay (3H-PGD2 binding to membranes of K562 cells expressing DP2). The settings on record: EC50 (nM) 4% HSA, inhibition of 3H-PGD2 binding, 4% HSA. An outline of the steps: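 Radioligand filtration binding: ³H-PGD2 displacement from DP2-expressing K562 cell membranes, 60 min, room temperature, pH 7.4, under 0.1% BSA, 1% HSA or 4% HSA.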
Chain of human DP2 (Q9Y5Y4 whole entry): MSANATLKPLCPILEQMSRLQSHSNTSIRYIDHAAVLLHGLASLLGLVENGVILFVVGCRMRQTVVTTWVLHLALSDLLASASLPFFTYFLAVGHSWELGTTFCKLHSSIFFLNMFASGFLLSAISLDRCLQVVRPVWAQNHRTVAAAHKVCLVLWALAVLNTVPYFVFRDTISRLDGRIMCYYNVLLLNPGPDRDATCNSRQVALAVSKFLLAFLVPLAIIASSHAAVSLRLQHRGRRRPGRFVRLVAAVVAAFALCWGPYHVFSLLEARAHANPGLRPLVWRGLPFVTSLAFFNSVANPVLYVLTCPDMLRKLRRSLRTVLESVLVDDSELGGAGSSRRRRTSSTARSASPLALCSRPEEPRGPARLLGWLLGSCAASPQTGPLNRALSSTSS
For the compound `COc1cc(C2CC2)ccc1CCNC(=O)c1ccc(Oc2cc3c(cc2Cl)C(C(=O)O)CCO3)cc1` (single isomer, unassigned) [235 Enantiomer 1, 6-chloro-7-(4-(4-cyclopropyl-2-methoxyphenethylcarbamoyl)phenoxy)chroman-4-carboxylic acid], the EC50 (usually the concentration needed to bring the measured effect to its halfway point) was above 5000 nM.

Staying with this assay, now noted: assay described in Example A.
Consider `COc1cc(C2CC2)ccc1CCNC(=O)c1ccc(Oc2cc3c(cc2Cl)C(C(=O)O)CCO3)cc1` (single isomer, unassigned) [235 Enantiomer 1, 6-chloro-7-(4-(4-cyclopropyl-2-methoxyphenethylcarbamoyl)phenoxy)chroman-4-carboxylic acid], for which the “relative activity of the enantiomers in the DP2 binding inhibition assay” value was “less active than the sodium salt of Enantiomer 2”.

Staying with this assay, now noted: read-out: EC50 (Nm) 1% HSA; inhibition of 3H-PGD2 binding, 1% HSA.
In the case of `N#Cc1cc2c(cc1Oc1ccc(C(=O)NC3CCc4ccccc4C3)cc1)OCCC2C(=O)O` (centres unmarked) [Example 72, 6-Cyano-7-(4-(1,2,3,4-tetrahydronaphthalen-2-ylcarbamoyl)phenoxy)chroman-4-carboxylic acid], the EC50 came out at 36.4 nM. As for `N#Cc1cc2c(cc1Oc1ccc(C(=O)NCC3(c4ccc(Cl)cc4)CC3)cc1)OCCC2C(=O)O` (centres unmarked) [Example 219, 7-(4-((1-(4-chlorophenyl)cyclopropyl)methylcarbamoyl)phenoxy)-6-cyanochroman-4-carboxylic acid], the concentration giving a half-maximal response (EC50) is 1040 nM.

The assay is the same for the next values; noted with them: read-out: EC50 (nM) 4% HSA; inhibition of 3H-PGD2 binding, 4% HSA.
For `N#Cc1cc2c(cc1Oc1ccc(C(=O)Nc3ccc(-c4ccc(Cl)cc4)cc3)cc1)OCCC2C(=O)O` (centres unmarked) [Example 69, 7-(4-(4′-Chlorobiphenyl-4-ylcarbamoyl)phenoxy)-6-cyanochroman-4-carboxylic acid], the EC50 was 240 nM. In the case of `N#Cc1cc2c(cc1Oc1ccc(C(=O)NCCc3ccc(-c4ccccc4)cc3)cc1)OCCC2C(=O)O` (centres unmarked) [Example 58, 7-(4-(2-(Biphenyl-4-yl)ethylcarbamoyl)phenoxy)-6-cyanochroman-4-carboxylic acid], the EC50 was found to be 434 nM. Still for that read-out and setting: the value for `O=C(NCCc1cccc(Oc2ccccc2)c1)c1ccc(Oc2cc3c(cc2Cl)C(C(=O)O)CCO3)cc1` (centres unmarked) [Example 149, Sodium 6-chloro-7-(4-(3-phenoxyphenethylcarbamoyl)phenoxy)chroman-4-carboxylate] was 280 nM; that for `O=C(NCCc1ccc(OC(F)F)cc1)c1ccc(Oc2cc3c(cc2Cl)C(C(=O)O)CCO3)cc1` (centres unmarked) [Example 223, 6-chloro-7-(4-(4-(difluoromethoxy)phenethylcarbamoyl)phenoxy) chroman-4-carboxylic acid] was 209 nM. `CSc1ccc(C2CCC(NC(=O)c3ccc(Oc4cc5c(cc4Cl)C(C(=O)O)CCO5)cc3)C2)cc1` (centres unmarked) [Example 175, Sodium 6-chloro-7-(4-(3-(4-(methylthio)phenyl)cyclopentylcarbamoyl)phenoxy)chroman-4-carboxylate]: the EC50 was 572 nM.

For `O=C(NC1CCN(c2cccc(Cl)c2)CC1)c1ccc(Oc2cc3c(cc2Cl)C(C(=O)O)CCO3)cc1` (centres unmarked) [Example 120, Sodium 6-chloro-7-(4-(1-(3-chlorophenyl)piperidin-4-ylcarbamoyl)phenoxy)chroman-4-carboxylate], the EC50 turned out to be 371 nM.

Take `O=C(NC(CO)Cc1ccc(Cl)cc1)c1ccc(Oc2cc3c(cc2Cl)C(C(=O)O)CCO3)cc1` (centres unmarked) [Example 178, Sodium 6-chloro-7-(4-(1-(4-chlorophenyl)-3-hydroxypropan-2-ylcarbamoyl)phenoxy)chroman-4-carboxylate]: the EC50 was determined as 1730 nM. On the same count and under the same terms, to `COc1cccc(C2CCCC(NC(=O)c3ccc(Oc4cc5c(cc4Cl)C(C(=O)O)CCO5)cc3)C2)c1` (centres unmarked) [Example 163, 6-Chloro-7-(4-(3-(3-methoxyphenyl)cyclohexylcarbamoyl)phenoxy)chroman-4-carboxylic acid] belongs 509 nM; to `Cc1cc(C(=O)NCCc2ccc(Cl)cc2)ccc1Oc1cc2c(cc1Cl)C(C(=O)O)CCO2` (centres unmarked) [Example 181, Sodium 6-chloro-7-(4-(4-chlorophenethylcarbamoyl)-2-methylphenoxy)chroman-4-carboxylate], 331 nM. For the compound `O=C(NCCc1ccccc1Cl)c1ccc(Oc2cc3c(cc2Cl)C(C(=O)O)CCO3)cc1` (centres unmarked) [Example 79, Sodium 6-chloro-7-(4-(2-chlorophenethylcarbamoyl)phenoxy)chroman-4-carboxylate], the EC50 was determined as 98.9 nM.
